Reference: ChEMBL document CHEMBL1131665, “Rapid synthesis of RGD mimetics with isoxazoline scaffolds on solid phase: identification of alphavbeta3 antagonists lead compounds” (Bioorg Med Chem Lett, 1999)

Assays:
Format in all cases: functional
[1] = target: Integrin alpha-IIb/beta-3 (Homo sapiens, UniProt P05106+P08514); test: Antagonistic activity against fibrinogen receptor
Integrin alpha-V/beta-3 = Integrin alpha-V/beta-3 (Homo sapiens, UniProt P05106+P06756); test: Antagonistic activity against vitronectin receptor
Sequence of Integrin alpha-V/beta-3 (P05106 27-788 limits assumed): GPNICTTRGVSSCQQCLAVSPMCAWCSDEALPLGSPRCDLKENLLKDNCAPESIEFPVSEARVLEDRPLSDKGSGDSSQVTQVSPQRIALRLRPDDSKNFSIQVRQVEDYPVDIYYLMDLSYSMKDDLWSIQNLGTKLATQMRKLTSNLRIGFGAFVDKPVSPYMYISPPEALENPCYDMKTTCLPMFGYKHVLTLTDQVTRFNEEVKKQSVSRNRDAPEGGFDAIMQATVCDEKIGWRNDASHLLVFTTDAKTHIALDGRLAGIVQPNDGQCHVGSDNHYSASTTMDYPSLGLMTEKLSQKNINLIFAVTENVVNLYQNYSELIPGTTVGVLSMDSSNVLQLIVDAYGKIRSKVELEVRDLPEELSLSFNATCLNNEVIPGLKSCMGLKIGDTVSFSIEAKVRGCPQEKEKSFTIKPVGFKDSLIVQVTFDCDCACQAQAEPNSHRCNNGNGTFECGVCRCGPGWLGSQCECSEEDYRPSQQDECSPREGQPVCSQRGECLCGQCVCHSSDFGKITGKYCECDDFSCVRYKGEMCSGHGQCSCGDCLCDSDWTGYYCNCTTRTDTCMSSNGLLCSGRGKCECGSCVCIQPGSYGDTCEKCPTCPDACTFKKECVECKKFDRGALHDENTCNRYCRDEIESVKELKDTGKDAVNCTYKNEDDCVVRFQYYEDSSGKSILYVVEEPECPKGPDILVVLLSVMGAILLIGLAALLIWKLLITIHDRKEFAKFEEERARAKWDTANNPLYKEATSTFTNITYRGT
Sequence of Integrin alpha-V/beta-3 (P06756 31-889 limits assumed): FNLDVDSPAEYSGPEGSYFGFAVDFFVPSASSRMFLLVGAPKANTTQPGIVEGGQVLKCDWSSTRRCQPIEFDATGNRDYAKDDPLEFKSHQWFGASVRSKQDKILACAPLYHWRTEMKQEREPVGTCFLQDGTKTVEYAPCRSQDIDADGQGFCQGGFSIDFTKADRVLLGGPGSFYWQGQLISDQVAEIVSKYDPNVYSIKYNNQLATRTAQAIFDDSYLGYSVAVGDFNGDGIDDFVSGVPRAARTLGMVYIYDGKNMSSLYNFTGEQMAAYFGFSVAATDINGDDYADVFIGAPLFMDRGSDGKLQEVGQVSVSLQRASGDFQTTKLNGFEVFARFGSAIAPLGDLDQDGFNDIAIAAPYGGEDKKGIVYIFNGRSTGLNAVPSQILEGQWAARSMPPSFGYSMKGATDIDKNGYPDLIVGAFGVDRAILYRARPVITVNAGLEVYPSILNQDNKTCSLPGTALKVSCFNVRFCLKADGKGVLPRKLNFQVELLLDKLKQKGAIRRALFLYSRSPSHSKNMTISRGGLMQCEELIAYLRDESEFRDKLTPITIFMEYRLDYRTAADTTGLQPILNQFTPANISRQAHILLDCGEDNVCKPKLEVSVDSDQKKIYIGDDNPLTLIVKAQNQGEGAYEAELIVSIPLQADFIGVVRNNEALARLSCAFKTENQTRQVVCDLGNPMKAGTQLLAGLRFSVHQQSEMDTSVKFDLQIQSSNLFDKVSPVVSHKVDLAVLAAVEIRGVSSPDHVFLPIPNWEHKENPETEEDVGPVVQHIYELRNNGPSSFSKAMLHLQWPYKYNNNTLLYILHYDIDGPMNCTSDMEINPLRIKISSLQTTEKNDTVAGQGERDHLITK
Sequence of Integrin alpha-V/beta-3 (P06756 891-1048 limits assumed): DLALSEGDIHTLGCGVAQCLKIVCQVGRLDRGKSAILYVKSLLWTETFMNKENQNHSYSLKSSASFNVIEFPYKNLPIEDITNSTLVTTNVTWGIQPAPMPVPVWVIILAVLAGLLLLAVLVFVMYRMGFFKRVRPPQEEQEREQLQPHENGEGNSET

[2] = Antagonistic activity against Vitronectin receptor protein ( alpha v beta 3 ) by ELISA assay

Sequence of Integrin alpha-IIb/beta-3 (P05106 27-788 limits assumed): as the sequence (P05106 27-788 limits assumed) above
Sequence of Integrin alpha-IIb/beta-3 (P08514 32-887 limits assumed): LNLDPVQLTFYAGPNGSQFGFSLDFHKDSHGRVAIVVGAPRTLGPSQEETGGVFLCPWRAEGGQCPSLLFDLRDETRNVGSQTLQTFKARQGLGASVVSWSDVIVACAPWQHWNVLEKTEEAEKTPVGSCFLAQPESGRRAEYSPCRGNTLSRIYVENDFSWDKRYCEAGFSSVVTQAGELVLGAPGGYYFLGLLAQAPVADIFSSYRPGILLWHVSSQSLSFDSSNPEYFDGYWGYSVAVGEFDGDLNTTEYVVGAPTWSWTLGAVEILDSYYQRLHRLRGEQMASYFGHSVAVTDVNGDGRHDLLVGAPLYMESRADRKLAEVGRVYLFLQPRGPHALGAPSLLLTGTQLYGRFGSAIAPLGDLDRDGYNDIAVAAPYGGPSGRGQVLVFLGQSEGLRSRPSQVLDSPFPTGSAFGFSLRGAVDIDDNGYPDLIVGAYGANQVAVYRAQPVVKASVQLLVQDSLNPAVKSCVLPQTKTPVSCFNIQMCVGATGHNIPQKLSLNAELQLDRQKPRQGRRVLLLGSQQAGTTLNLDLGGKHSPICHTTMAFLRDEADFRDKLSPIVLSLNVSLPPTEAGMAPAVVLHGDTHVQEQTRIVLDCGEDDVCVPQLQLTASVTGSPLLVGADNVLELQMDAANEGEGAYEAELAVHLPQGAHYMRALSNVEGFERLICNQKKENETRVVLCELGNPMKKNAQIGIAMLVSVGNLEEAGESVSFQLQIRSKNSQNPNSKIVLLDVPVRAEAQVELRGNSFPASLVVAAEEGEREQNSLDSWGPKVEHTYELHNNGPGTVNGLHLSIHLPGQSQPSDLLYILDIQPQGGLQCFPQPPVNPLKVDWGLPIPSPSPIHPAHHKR
Sequence of Integrin alpha-IIb/beta-3 (P08514 891-1039 limits assumed): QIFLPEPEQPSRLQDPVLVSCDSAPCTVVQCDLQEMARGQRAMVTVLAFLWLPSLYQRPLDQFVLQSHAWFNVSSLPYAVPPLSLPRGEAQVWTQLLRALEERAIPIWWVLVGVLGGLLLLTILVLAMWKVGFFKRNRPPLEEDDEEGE

| IC50 [1] | IC50 (Integrin alpha-V/beta-3) | IC50 [2] | SMILES |
| --- | --- | --- | --- |
| 1300 nM | 15 nM |  | N=C(N)NCCCCC1CC(C(=O)NC[C@H](NS(=O)(=O)c2ccc(F)cc2)C(=O)O)=NO1 (stereo partly specified) |
| 3600 nM | 96 nM |  | Cn1ccc(S(=O)(=O)N[C@@H](CNC(=O)C2=NOC(CCCCN=C(N)N)C2)C(=O)O)n1 (stereo partly specified) |
| 1900 nM | 24 nM |  | N=C(N)NCCCCC1CC(C(=O)NC[C@H](NS(=O)(=O)c2cc(Cl)sc2Cl)C(=O)O)=NO1 (stereo partly specified) |
| > 100000 nM | 2600 nM |  | N=C(N)NCCC1=NOC(C(=O)NC[C@H](NC(=O)OCc2ccccc2)C(=O)O)C1 (stereo partly specified) |
| 13000 nM | 710 nM |  | N=C(N)NCCCCCC1=NOC(C(=O)NC[C@H](NC(=O)OCc2ccccc2)C(=O)O)C1 (stereo partly specified) |
| 360 nM | 23 nM |  | N=C(N)NCCCCC1CC(C(=O)NC[C@H](NS(=O)(=O)c2cccs2)C(=O)O)=NO1 (stereo partly specified) |
| 1500 nM | 470 nM |  | N=C(N)NCCCCCC1=NOC(CC(=O)NC[C@H](NC(=O)OCc2ccccc2)C(=O)O)C1 (stereo partly specified) |
|  | 23 nM |  | N=C(N)NCCCCC1CC(C(=O)NC[C@H](NC(=O)OCc2ccccc2)C(=O)O)=NO1 (stereo partly specified) |
| 800 nM | 180 nM |  | N=C(N)NCCCCC1=NOC(CC(=O)NC[C@H](NC(=O)OCc2ccccc2)C(=O)O)C1 (stereo partly specified) |
| > 100000 nM | 310 nM |  | N=C(N)NCC1CC(CCC(=O)NC[C@H](NC(=O)OCc2ccccc2)C(=O)O)=NO1 (stereo partly specified) |
| 3600 nM | 300 nM |  | N=C(N)NCCCCC1=NOC(CCC(=O)NC[C@H](NC(=O)OCc2ccccc2)C(=O)O)C1 (stereo partly specified) |
| 850 nM | 14 nM |  | Cc1noc(C)c1S(=O)(=O)N[C@@H](CNC(=O)C1=NOC(CCCCN=C(N)N)C1)C(=O)O (stereo partly specified) |
| 12000 nM | 900 nM |  | N=C(N)NCCC1=NOC(CC(=O)NC[C@H](NC(=O)OCc2ccccc2)C(=O)O)C1 (stereo partly specified) |
| 53000 nM | 140 nM |  | N=C(N)NCCCC1CC(C(=O)NC[C@H](NC(=O)OCc2ccccc2)C(=O)O)=NO1 (stereo partly specified) |
| 43000 nM | 140 nM |  | N=C(N)NCCCCC1CC(C(=O)NC[C@H](NS(=O)(=O)c2ccc([N+](=O)[O-])cc2)C(=O)O)=NO1 (stereo partly specified) |
| 780 nM | 11 nM |  | N=C(N)NCCCCC1CC(C(=O)NC[C@H](NS(=O)(=O)c2ccccc2)C(=O)O)=NO1 (stereo partly specified) |

| IC50 [1] | IC50 (Integrin alpha-V/beta-3) | IC50 [2] | SMILES |
| --- | --- | --- | --- |
| 55000 nM |  | 81 nM | N=C(N)NCCCCC1=NOC(C(=O)NC[C@H](NC(=O)OCc2ccccc2)C(=O)O)C1 (stereo partly specified) |
|  | 100 nM |  | N=C(N)NCCCC1=NOC(CCC(=O)NC[C@H](NC(=O)OCc2ccccc2)C(=O)O)C1 (stereo partly specified) |
| 460 nM | 12 nM |  | COc1ccc(S(=O)(=O)N[C@@H](CNC(=O)C2=NOC(CCCCN=C(N)N)C2)C(=O)O)cc1 (stereo partly specified) |
| 340 nM | 0.7 nM |  | Cc1cc(C)c(S(=O)(=O)N[C@@H](CNC(=O)C2=NOC(CCCCN=C(N)N)C2)C(=O)O)c(C)c1 (stereo partly specified) |
| 170 nM | 4 nM |  | N=C(N)NCCCCC1CC(C(=O)NC[C@H](NS(=O)(=O)c2ccccc2Br)C(=O)O)=NO1 (stereo partly specified) |
| 220 nM | 2 nM |  | Cc1cn(C)[n+](Cl)c1S(=O)(=O)N[C@@H](CNC(=O)C1=NOC(CCCCN=C(N)N)C1)C(=O)[O-] (stereo partly specified) |
| 7900 nM | 7 nM |  | CN(C)c1cccc2c1ccc[n+]2S(=O)(=O)N[C@@H](CNC(=O)C1=NOC(CCCCN=C(N)N)C1)C(=O)[O-] (stereo partly specified) |
| 47000 nM | 36 nM |  | CC(C)(C)c1ccc(S(=O)(=O)N[C@@H](CNC(=O)C2=NOC(CCCCNC(=N)N)C2)C(=O)O)cc1 (stereo partly specified) |
| 3500 nM | 16 nM |  | N=C(N)NCCCCC1CC(C(=O)NC[C@H](NS(=O)(=O)c2cccc3ccccc23)C(=O)O)=NO1 (stereo partly specified) |
|  | 66 nM |  | N=C(N)NCCC1CC(C(=O)NC[C@H](NC(=O)OCc2ccccc2)C(=O)O)=NO1 (stereo partly specified) |
| 12000 nM | 72 nM |  | N=C(N)NCCCC1=NOC(CC(=O)NC[C@H](NC(=O)OCc2ccccc2)C(=O)O)C1 (stereo partly specified) |
| > 100000 nM | 110 nM |  | N=C(N)NCCCC1=NOC(C(=O)NC[C@H](NC(=O)OCc2ccccc2)C(=O)O)C1 (stereo partly specified) |
| 690 nM | 8 nM |  | N=C(N)NCCCCC1CC(C(=O)NC[C@H](NS(=O)(=O)c2ccc(-c3ccccn3)s2)C(=O)O)=NO1 (stereo partly specified) |
| 23000 nM | 480 nM |  | N=C(N)NCCC1=NOC(CCC(=O)NC[C@H](NC(=O)OCc2ccccc2)C(=O)O)C1 (stereo partly specified) |
| 2600 nM | 12 nM |  | N=C(N)NCCCCC1CC(C(=O)NC[C@H](NS(=O)(=O)c2ccc(Cl)cc2)C(=O)O)=NO1 (stereo partly specified) |
| 17000 nM | 87 nM |  | N=C(N)NCCC1CC(CCC(=O)NC[C@H](NC(=O)OCc2ccccc2)C(=O)O)=NO1 (stereo partly specified) |
